Results on twelve molecules are retold here after patent publication EP1923473B1, “Bis-diglycolamides (BISDGA) as new extractants for lanthanides [Ln(III)] and actinides [An(III)] from aqueous high-level wastes” (Universidad Autónoma de Madrid, priority 2006, dated 2008).

Holding throughout (assay type): physicochemical
Series [1] in a line: Extraction capability from aqueous 3 mol/L nitric acid. The conditions noted are these: aqueous [HNO3] 3 mol/L spiked with 152Eu(III) and 241Am(III). How it is done: The organic solutions of the extractant compounds to be tested were prepared dissolving an amount of the extractant compound in the solvent considered in each case to reach the ligand concentration of 0.1 mol/L. The solvents considered were 1-octanol, n-heptane, n-dodecane, the industrial solvent "TPH" (hydrogenated tetrapropylene) used in the "La Hague" reprocessing plant of the COGEMA company (Compagnie générale des matières nucléaires) and different mixtures "TPH/1-octanol or n-dodecane/1-octanol".
Once said solution was obtained, its equilibration was carried out. To that end, 800 µL of the organic solution of the compound to be studied were contacted with 800 µL of nitric acid of 3 mol/L concentration and it was stirred vigorously in an oscillating shaker for 5 minutes. The phases were separated by centrifugation at 5000 rpm. 800 µL of the said organic phase were again contacted with 800 µL of nitric acid of 3 mol/L concentration for another 5 minutes of vigorous shaking. The phases were separated by centrifugation, the organic phase being considered to be equilibrated.
(§1) 600 µL of the organic phase of the compound to be studied, previously equilibrated, were contacted with 600 µL of aqueous phase consisting of a 3 mol/L nitric acid solution spiked with 600 Bq of ^152Eu and 600 Bq of ^241Am. It was stirred vigorously by means of an oscillating shaker for 30 minutes and the phases were separated by centrifugation at 5000 rpm. 400 µL were taken from each of the phases for determining the concentration of the radionuclides ^152Eu and ^241Am. This determination was carried out by means of the high energy gamma spectrometry technique with a high-purity Ge detector (Canberra Inc.), using the 122 keV line for the determination of ^152Eu concentration and the 59.5 keV line for the determination of ^241Am concentration. The distribution coefficient was calculated by relating the concentration of each of the radionuclides in the organic phase and in the aqueous phase, according to the expression: DM = ([M]org)/([M]aq) [formula]
(§2) The distribution coefficients and the selectivity factor of each of them were determined as indicated in sections A) to C).

The nature of series [2]: Eu/Am selectivity factor in extraction from 3 mol/L nitric acid. The conditions noted are these: aqueous [HNO3] 3 mol/L. As for the experimental part:
as §1
The Eu/Am selectivity factor was calculated by relating the corresponding distribution coefficients of Eu with those of Am in the same experimental conditions: SFEu/Am = DEu /DAm [formula]
as §2

The nature of series [3]: Third phase formation in extraction from simulated HLLW. The conditions noted are these: HLLW without oxalic acid and without HEDTA; TODGA 0.2 mol/L. How it is done:
[…] Extraction experiments were carried out with said simulated HLLW in a pure form and also adding oxalic acid and HEDTA to it. These complexing agents have shown to be effective in the DIAMEX process for the complexing of Mo, Zr (H2C2O4) and Pd (HEDTA).
The actinides Am (III), Cm (III) and Cf (III) as well as trivalent lanthanides were extracted with high distribution coefficients from HLLW with a 3.2 mol/L nitric acid concentration. […] As expected, Zr and Pd are not co-extracted when complexing agents are added to HLLW.

Series [4] is described as follows: Radiolytic stability, extraction capability after irradiation. The conditions noted are these: after 1000 kGy; irradiated dissolved in n-dodecane/1-octanol (95:5)%vol, equilibrated with 3 mol/L nitric acid. How it is done: The tests of stability against irradiation were carried out in the NAYADE facility at CIEMAT site, with external ^60Co sources with an approximate activity of 5000 Ci, with a homogeneous irradiation flux. The dose rate applied in all the experiments was 4 kGy/h and integrated doses of 250 kGy, 500 kGy, 750 kGy and 1000 kGy were considered. The irradiation device consists of a metal cylinder which is introduced in a rack wherein the ^60CO sources are placed radially, such that the irradiation is homogeneous. The irradiation process is carried out submersing the device in a pool of water with a depth of 4 meters.
Irradiation tests of the solid compound (in the absence of solvent) and of the compound dissolved in the "n-dodecane/1-octanol (95:5)%vol" mixture, equilibrated with 3 mol/L nitric acid, were carried out. The organic solutions were prepared and equilibrated as detailed in the previous sections A) and B).
Once each programmed integrated dose was reached, the extraction capability of the organic samples was evaluated as detailed in section C).
The irradiation of compound 4 in solid form (in the absence of solvent) and dissolved at a 0.1 mol/L concentration in the "n-dodecane/1-octanol 1 (95:5)%vol" mixture, equilibrated with 3 mol/L nitric acid, was carried out. The applied dose rate was 4 kGy/h and the considered integrated doses were 250 kGy, 500 kGy, 750 kGy and 1000 kGy. After each integrated dose, the extraction capability of Am(III) and Eu(III) was evaluated as described in section C.
The considered integrated doses in this experiment were 500 kGy and 1000 kGy at a dose rate of 4 kGy/h.

Setting [5] is: 0.1 mol/L in TPH/1-octanol (50:50)%vol.

As to “2-Dibutylcarbamoylmethoxy-N-[3-[(2-dibutylcarbamoyl-methoxy-acetylamino)methyl]benzyl]acetamide [Compound 3]”, in series [1] (setting [5]), the DAm is 99 and the DEu was 183. This molecule returned an SFEu/Am in series [2] (setting [5]) of 1.9.

In series [1] (setting [5]), “2-Dibutylcarbamoylmethoxy-N-[6-(2-dibutylcarbamoyl-methoxyacetylamino)hexyl]acetamide [Compound 14]” yielded a DAm of 119 and a DEu of 215. This molecule had an SFEu/Am in series [2] (setting [5]) of 1.8.

In series [1] (0.1 mol/L in 1-octanol), “2-Dioctylcarbamoylmethoxy-N-[6-(2-dioctylcarbamoyl-methoxyacetylamino)hexyl]acetamide [Compound 15]” yielded a DAm of 25 and a DEu of 98. In addition, the SFEu/Am in series [2] (0.1 mol/L in 1-octanol) was 3.9.

In series [1] (setting [5]), `CCCCCCCCN(C)C(=O)COCC(=O)NCc1cccc(CNC(=O)COCC(=O)N(C)CCCCCCCC)c1` [Compound 5, 2-[(Methyloctylcarbamoyl)methoxy]-N-[3-[(2-[(methyl-octyl-carbamoyl)methoxy]acetylamino]methyl]benzyl]-acetamide] displayed a DAm of 83 and a DEu of 309. Moreover, in series [2] (setting [5]), the SFEu/Am turned out to be 3.7.

`CC(C)CCN(CCC(C)C)C(=O)COCC(=O)NCc1cccc(CNC(=O)COCC(=O)N(CCC(C)C)CCC(C)C)c1` [Compound 6, 2-[[Bis(3-methylbutyl)carbamoyl]methoxy]-N-[3-[(2-[[bis-(3-methylbutyl)carbamoyl]methoxy]acetylamino)methyl]-benzyl]-acetamide]: in series [1] (setting [5]), the DAm is reported as 82 and the DEu is listed as 251. This molecule also registered an SFEu/Am in series [2] (setting [5]) of 3.1.

In series [1] (setting [5]), `CCCCCCCCN(CCCCCCCC)C(=O)COCC(=O)NCc1ccc(CNC(=O)COCC(=O)N(CCCCCCCC)CCCCCCCC)cc1` [Compound 8] came in with a DAm of 67 and a DEu of 276. In series [2] (setting [5]), this molecule displayed an SFEu/Am of 4.1.

In series [1] (setting [5]), `CCCCCC(C)Oc1cc(CNC(=O)COCC(=O)N(CCCC)CCCC)cc(CNC(=O)COCC(=O)N(CCCC)CCCC)c1` (stereo not drawn) [Compound 10, 2-Di-butylcarbamoylmethoxy-N-[3-[(2-dibutyl-carbamoyl-methoxyacetylamino)methyl]-5-(1-methylhexyloxy)benzyl]-acetamide] had a DAm of 41 and a DEu of 276. The SFEu/Am in series [2] (setting [5]) was 6.7.

As to `CCCCCCCCCCCCOc1cc(CNC(=O)COCC(=O)N(CCCC)CCCC)cc(CNC(=O)COCC(=O)N(CCCC)CCCC)c1` [Compound 11, 2-Di-butylcarbamoylmethoxy-N-[3-[(2-dibutyl-carbamoyl-methoxyacetylamino)methyl]-5-dodecyloxybenzyl]acetamide], in series [1] (setting [5]), the DAm came to 88 and the DEu is given as 335. In series [2] (setting [5]), this molecule registered an SFEu/Am of 3.8.

In series [1] (setting [5]), `CCCCN(CCCC)C(=O)COCC(=O)NCCCNC(=O)c1cc(C(C)(C)C)cc2c1Oc1c(C(=O)NCCCNC(=O)COCC(=O)N(CCCC)CCCC)cc(C(C)(C)C)cc1C2(C)C` [Compound 19, 2,7-di-tert-butyl-9,9-dimethyl-9H-xanthen-4,5-dicarboxylic acid bis-[[3-(2-dibutylcarbamoylmethoxy-acetylamino)propyl]amide]] had a DAm of 65 and a DEu of 318. In series [2] (setting [5]), this molecule yielded an SFEu/Am of 4.9.

As for `CCCCCCCCN(CCCCCCCC)C(=O)COCC(=O)N(C)C` [DMDODGA, N,N-dimethyl-N',N'-dioctyl-oxapentane-diamide, reference compound], in series [1] (setting [5]), the DAm turned out to be 477 and the DEu is listed as 789. The molecule also registered an SFEu/Am in series [2] (setting [5]) of 1.7.

In series [1] (setting [5]), `CCCCN(CCCC)C(=O)COCC(=O)N(CCCC)CCCC` [TBDGA, N,N,N',N'-tetrabutyl-3-oxapentane-diamide, reference compound] had a DAm of 476 and a DEu of 680. Moreover, the SFEu/Am in series [2] (setting [5]) worked out at 1.4.

Turning to `CCCCCCCCN(CCCCCCCC)C(=O)COCC(=O)N(CCCCCCCC)CCCCCCCC` [TODGA, N,N,N',N'-tetraoctyl diglycolamide, reference compound], in series [3], the third phase entry is listed as “a third phase was observed”. In series [4], this molecule came in with a DAm of 121 and a DEu of 458.
